Experimental data taken from ChEMBL document CHEMBL1130694, “Selective chemical modifications of polymyxin B” (Bioorg Med Chem Lett, 1998).
≈ marks a conversion by molar mass, not a printed value. Positions of bridges follow the written chain, without caps; N, C: chain ends. Non-standard residues stand in square brackets, D forms with d. Residues, ends and D or L forms follow the SMILES beside them. *: point of attachment. Heptanoyl(6-Me) = CC(C)CCCCC(=O)*; Dab = NCC[C@H](N)C(=O)O

Legend:
[1] = organism: Mus musculus; assay: Compound was tested for protection against Pseudomonas infection in mice; format: functional; conditions: read-out: PD50
[2] = system: Staphylococcus; assay: Compound was tested for antibacterial activity against Staphylococcus organism; format: functional
[3] = system: Pseudomonas; assay: Compound was tested for antibacterial activity against Pseudomonas organism; format: functional
[4] = system: Escherichia coli; assay: Compound was tested for antibacterial activity against Escherichia coli organism; format: functional
[5] = Ratio of LD50 to PD50 was evaluated.; format: ADME, organism-based; conditions: mouse, in vivo
[6] = Compound was tested for acute toxicity in mice upon intravenous administration; format: organism-based; conditions: mouse, in vivo

Row | SMILES | ED50 [1] | MIC [2] | MIC [3] | MIC [4] | selectivity ratio [5] | LD50 [6]
1 | CC(C)CCCCC(=O)N[C@@H](CCNC(=O)CN)C(=O)N[C@H](C(=O)N[C@@H](CCN)C(=O)N[C@H]1CCNC(=O)[C@H]([C@@H](C)O)NC(=O)[C@H](CCN)NC(=O)[C@H](CCN)NC(=O)[C@H](CC(C)C)NC(=O)[C@@H](Cc2ccccc2)NC(=O)[C@H](CCN)NC1=O)[C@@H](C)O [listing 1 of 2 here] | 7 mg/kg | 8 µg/mL (≈ 6.42 µM) | 0.033 µg/mL (≈ 0.0265 µM) | 0.028 µg/mL (≈ 0.0225 µM) | – | –
2 | CC(C)CCCCC(=O)N[C@@H](CCNC(=O)CN)C(=O)N[C@H](C(=O)N[C@@H](CCN)C(=O)N[C@H]1CCNC(=O)[C@H]([C@@H](C)O)NC(=O)[C@H](CCN)NC(=O)[C@H](CCN)NC(=O)[C@H](CC(C)C)NC(=O)[C@@H](Cc2ccccc2)NC(=O)[C@H](CCN)NC1=O)[C@@H](C)O [listing 2 of 2 here] | – | – | – | – | 2.8 | 20 mg/kg
3 | CCCCCCC(N)C(=O)NCC[C@@H]1NC(=O)[C@H](CCN)NC(=O)[C@H](CC(C)C)NC(=O)[C@@H](Cc2ccccc2)NC(=O)[C@H](CCN)NC(=O)[C@@H](NC(=O)[C@H](CCN)NC(=O)[C@@H](NC(=O)[C@H](CCN)NC(=O)CCCCC(C)C)[C@@H](C)O)CCNC(=O)[C@H]([C@@H](C)O)NC1=O (stereo partly specified) | 7 mg/kg | 0.561 µg/mL (≈ 0.422 µM) | 0.051 µg/mL (≈ 0.0383 µM) | 0.225 µg/mL (≈ 0.169 µM) | 1.7 | 12 mg/kg
4 | CC(C)CCCCC(=O)N[C@@H](CCN)C(=O)N[C@H](C(=O)N[C@@H](CCN)C(=O)N[C@H]1CCNC(=O)[C@H]([C@@H](C)O)NC(=O)[C@H](CCN)NC(=O)[C@H](CCN)NC(=O)[C@H](CC(C)C)NC(=O)[C@@H](Cc2ccccc2)NC(=O)[C@H](CCN)NC1=O)[C@@H](C)O ({Heptanoyl(6-Me)}-[Dab]T[Dab][Dab][Dab][dF]L[Dab][Dab]T; lactam 4-C) [listing 1 of 2 here] | – | – | – | – | 4.5 | 9 mg/kg
5 | CC(C)CCCCC(=O)N[C@@H](CCN)C(=O)N[C@H](C(=O)N[C@@H](CCN)C(=O)N[C@H]1CCNC(=O)[C@H]([C@@H](C)O)NC(=O)[C@H](CCNC(=O)[C@@H](N)CCCN=C(N)N)NC(=O)[C@H](CCN)NC(=O)[C@H](CC(C)C)NC(=O)[C@@H](Cc2ccccc2)NC(=O)[C@H](CCN)NC1=O)[C@@H](C)O | 0.25 mg/kg | 2 µg/mL (≈ 1.49 µM) | 0.03 µg/mL (≈ 0.0223 µM) | 0.16 µg/mL (≈ 0.119 µM) | 60 | 15 mg/kg
6 | CC(C)CCCCC(=O)N[C@@H](CCN)C(=O)N[C@H](C(=O)N[C@@H](CCN)C(=O)N[C@H]1CCNC(=O)[C@H]([C@@H](C)O)NC(=O)[C@H](CCNC(=O)[C@@H](N)Cc2ccc(O)cc2)NC(=O)[C@H](CCN)NC(=O)[C@H](CC(C)C)NC(=O)[C@@H](Cc2ccccc2)NC(=O)[C@H](CCN)NC1=O)[C@@H](C)O | 2.2 mg/kg | 2.2 µg/mL (≈ 1.63 µM) | 0.073 µg/mL (≈ 0.054 µM) | 0.175 µg/mL (≈ 0.129 µM) | 8.6 | 19 mg/kg
7 | CC(C)CCCCC(=O)N[C@@H](CCN)C(=O)N[C@H](C(=O)N[C@@H](CCN)C(=O)N[C@H]1CCNC(=O)[C@H]([C@@H](C)O)NC(=O)[C@H](CCN)NC(=O)[C@H](CCN)NC(=O)[C@H](CC(C)C)NC(=O)[C@@H](Cc2ccccc2)NC(=O)[C@H](CCN)NC1=O)[C@@H](C)O ({Heptanoyl(6-Me)}-[Dab]T[Dab][Dab][Dab][dF]L[Dab][Dab]T; lactam 4-C) [listing 2 of 2 here] | 2 mg/kg | 2.8 µg/mL (≈ 2.35 µM) | 0.051 µg/mL (≈ 0.0429 µM) | 0.026 µg/mL (≈ 0.0219 µM) | – | –
8 | CC(C)CCCCC(=O)N[C@@H](CCN)C(=O)N[C@H](C(=O)N[C@@H](CCN)C(=O)N[C@H]1CCNC(=O)[C@H]([C@@H](C)O)NC(=O)[C@H](CCNC(=O)[C@@H](N)C[C@H](CCN)C(=O)OCc2ccccc2)NC(=O)[C@H](CCN)NC(=O)[C@H](CC(C)C)NC(=O)[C@@H](Cc2ccccc2)NC(=O)[C@H](CCN)NC1=O)[C@@H](C)O | 2 mg/kg | 0.445 µg/mL (≈ 0.307 µM) | 0.087 µg/mL (≈ 0.0599 µM) | 0.146 µg/mL (≈ 0.101 µM) | 6.5 | 13 mg/kg
